We go through one molecule from patent US20240361338A1, “DIAGNOSIS AND TREATMENT OF ECTOPIC ENDOMETRIOSIS” (FERRING B.V., priority 2021, published 2024).

In one assay the test system is HUVECs. Kind of assay: Annexin V apoptosis assay on HUVECs. Particulars: after 24 hours of quinagolide treatment, 10^-5 and 10^-7 M. It is filed as cell-based, human. Here is the method: FIG. 3: Quinagolide effect on EMSCs apoptosis and proliferation. A: Quinagolide concentration-response curve on ectopic EMSCs in both apoptosis (N=1) and proliferation (N=2) assays. B: Effect of two selected quinagolide doses (10^−5 and 10^−7M) on HUVECs (N=1) and ectopic E-MSCs (N=3) apoptosis and proliferation assays (N=2). Data are represented as mean±SD of the indicated number of experiments and normalized to untreated cells (Control). Annexin V assays were performed using the Muse™ Annexin V & Dead Cell Kit (Millipore), according to the manufacturer's recommendations. Briefly, 20×10^3 cells were plated and after 24 h treated with different concentrations of quinagolide. After 24, 48 and 72 hours, cells were detached and resuspended in Muse™ Annexin V & Dead Cell Kit and the percentage of apoptotic cells (Annexin V+) was measured. Data are expressed as the mean±standard deviation (SD) of the media of absorbance of at least three different experiments and normalized to control.

The test system of another assay is AKT. The assay can be described thus: Western blot of P-AKT in E-MSC-HUVEC cocultures. It is filed as cell-based, human. Particulars: 100 nM quinagolide 24 h. Here is the method:
FIG. 6: Quinagolide effect on AKT activation. A: Representative western blot analysis and quantification of AKT levels in eutopic and ectopic EMSCs treated for 48 h with 100 nM quinagolide (Q), compared to untreated cells (CTL). B: Representative western blot analysis and quantification of P-AKT levels, normalized to AKT expression, in eutopic and ectopic EMSCs treated for 48 h with 100 nM quinagolide (Q), respect to untreated cells (CTL). C: Representative western blot analysis and quantification of P-AKT levels in HUVECs, ectopic […] basal), and in […] co-culture with HUVECs, treated or not for 24 h with 100 nM quinagolide (Q100 nM). Data are represented as mean±SD of at least two independent experiments, performed on different EMSC lines, and normalized to Vinculin and to untreated cells (CTL). One-way ANOVA was performed: *=p<0.05 and **=p<0.001 vs CTL. Cell pellets were lysed at 4° C. for 15 minutes in RIPA buffer supplemented with protease and phosphatase inhibitors cocktail and PMSF (Sigma-Aldrich). Proteins were quantified using Bradford solution following the manufacturer procedures (Bio-Rad Inc., Berkely, CA, USA) and aliquots of cell lysates containing 50 μg of proteins were run on 4-12% Mini-Protean TGX Stain-Free Gels (Bio-Rad) under reducing conditions and transferred onto PVDF membrane filters using the iBLOT2 system (Life Technologies). […]
A general note: A western blot detects proteins with antibodies after separation by electrophoresis.

The test system of the next assay is ectopic E-MSCs. Kind of assay: Matrigel transwell invasion assay, ectopic E-MSCs. It is filed as cell-based, human. The protocol:
FIG. 4: Quinagolide effect on EMSCs invasion. A and B: Representative micrographs (A) and quantification (B) of quinagolide effect (100 nM) on eutopic and ectopic (both ovarian and peritoneal) EMSCs invasion (original magnification: ×100). C: Concentration response effect of quinagolide treated ectopic EMSCs invasion. D and E: Quantification (D) and representative micrographs (E) (original magnification: ×100) of invasion assays performed on ectopic EMSCs (both ovarian and peritoneal), treated with 100 nM quinagolide (Q100 nM), 5 μM spiperone(S) or a combination of quinagolide and spiperone (S+Q100 nM). All invasion data are represented as mean±SD of at least three independent experiments, performed on different EMSC lines, and normalized to untreated cells (CTL). One-way ANova was performed: *=p<0.05 and **=p<0.001 vs CTL. Quinagolide powder (provided by Ferring Pharmaceuticals) was stored at 4° C. and resuspended in dimethylsulphoxide (DMSO) to a stock solution of 1 mM immediately before use. Spiperone powder (Sigma-Aldrich) was resuspended in water to a stock concentration of 1 mM and stored at −20° C. Cabergoline powder (Sigma-Aldrich) was dissolved in DMSO to a stock concentration of 25 mM and stored at −20° C. […] Quinagolide, cabergoline, sorafenib and cabozantinib and were administered for 24 hours during co-culture experiments, while spiperone was added to culture medium 1 h before quinagolide treatment. […] E-MSCs were seeded in triplicate in Matrigel-precoated (100 μg Matrigel/transwell) 8-um pore transwells at a concentration of 50,000 cells per well in 200 μl of RPMI 2% FCS with/without quinagolide at the indicated concentration. To test the D2 antagonist effect, E-MSCs were pre-treated with spiperone (5 μM) for 1 h at 37° C. before cell detachment. After 48 hours, invaded E-MSCs on the bottom side of the transwell were fixed with methanol and stained with crystal violet. At least five pictures per transwell were acquired (original magnification: 100×), and the percentage of transwell area covered by invaded EMSCs was quantitatively measured by ImageJ software.

A further assay has as its target dopamine D2 (Homo sapiens, UniProt P14416). Conditions: Igbokwe et al, 2009; read-out: EC50 as D2 agonist; cited from earlier work.

dopamine D2, sequence (P14416 1-414 isoform P14416-2): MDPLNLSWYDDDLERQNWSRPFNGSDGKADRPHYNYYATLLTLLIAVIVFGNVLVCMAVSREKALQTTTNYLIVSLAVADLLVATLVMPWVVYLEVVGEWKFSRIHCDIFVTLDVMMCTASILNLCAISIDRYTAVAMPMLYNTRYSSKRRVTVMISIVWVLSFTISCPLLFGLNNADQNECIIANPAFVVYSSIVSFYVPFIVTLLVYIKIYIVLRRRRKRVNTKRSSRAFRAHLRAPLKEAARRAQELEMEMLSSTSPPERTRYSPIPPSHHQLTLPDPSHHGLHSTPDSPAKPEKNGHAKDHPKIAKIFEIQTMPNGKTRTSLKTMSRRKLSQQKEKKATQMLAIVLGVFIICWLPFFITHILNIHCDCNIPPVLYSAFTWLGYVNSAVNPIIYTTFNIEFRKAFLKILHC

As for `CCCN1C[C@@H](NS(=O)(=O)N(CC)CC)C[C@@H]2Cc3c(O)cccc3C[C@H]21` [quinagolide, N,N-diethyl-N′-[(3S,4aS,10aR)-6-hydroxy-1-propyl-1,2,3,4,4a,5,10,10a-octahydrobenzo[g]quinolin-3-yl]sulfamide], the “apoptosis of HUVEC cells” value in the assay with HUVECs was “did not show alteration”. Further, in the assay with AKT, the AKT phosphorylation entry was “reduced”. For the same molecule, the “invasion of ectopic E-MSC lines” value in the assay with ectopic E-MSCs (100 nM, 48 h, Matrigel, vs untreated) was “significantly reduced”. Moreover, the “concentration response of invasion reduction” value in the assay on ectopic E-MSCs (ectopic EMSCs, 48 h (FIG. 4C)) was “dose-dependent”. At dopamine D2, the EC50 was 0.058 nM.

By EC50 is commonly meant the concentration that produces a half-maximal response.
